{"source": "paper PMC5681660", "about": "“Reduced hepatitis B and D viral entry using clinically applied drugs as novel inhibitors of the bile acid transporter NTCP” (Scientific Reports, 2017)", "biological_target": "T1, human NTCP (Homo sapiens, UniProt Q14973)", "T1 sequence (Q14973 1-349)": "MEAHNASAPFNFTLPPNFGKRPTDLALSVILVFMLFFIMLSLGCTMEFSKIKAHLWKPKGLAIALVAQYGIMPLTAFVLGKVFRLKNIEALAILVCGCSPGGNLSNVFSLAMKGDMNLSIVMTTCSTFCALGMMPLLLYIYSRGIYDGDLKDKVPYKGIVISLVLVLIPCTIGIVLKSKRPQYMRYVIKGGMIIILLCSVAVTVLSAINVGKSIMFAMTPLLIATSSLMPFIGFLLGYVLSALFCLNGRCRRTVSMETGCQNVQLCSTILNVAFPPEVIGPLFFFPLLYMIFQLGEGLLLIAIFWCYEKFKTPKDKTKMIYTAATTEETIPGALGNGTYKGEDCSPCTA", "assay": "Screening taurocholate uptake assay (96-well, [14C]taurocholate, 10 µM drug)", "conditions": "for B-score functional assay: screening taurocholate uptake, 10 µM drug", "key": {"[1]": {"conditions": "ranking over the functional and the binding screening assay"}, "[2]": {"conditions": "combined ranking of functional and binding screening assays"}}, "note": "Where a name gives a salt, the structure may show the parent alone."}
{"smiles": "O=C(OCCOCCO)c1ccccc1Nc1cccc(C(F)(F)F)c1", "note": "[Etofenamate]", "values": [{"measurement": "Ranking score", "setting": "[1]", "result": 165.439}, {"measurement": "B-score functional assay", "result": 1.885}]}
{"smiles": "C=C1C[C@@H]2[C@H](CC[C@]3(C)C(=O)CC[C@@H]23)[C@@]2(C)C=CC(=O)C=C12", "note": "[Exemestane]", "values": [{"measurement": "Ranking score", "setting": "[2]", "result": 568.146}, {"measurement": "B-score functional assay", "result": -0.634}]}
{"smiles": "CC(=O)OCC(CCn1cnc2cnc(N)nc21)COC(C)=O", "note": "[Famciclovir]", "values": [{"measurement": "Ranking score", "setting": "[2]", "result": 539.09}, {"measurement": "B-score functional assay", "result": 0.016}]}
{"smiles": "NC(=O)OCC(COC(N)=O)c1ccccc1", "note": "[Felbamate]", "values": [{"measurement": "Ranking score", "setting": "[2]", "result": 558.78}, {"measurement": "B-score functional assay", "result": 0.213}]}
{"smiles": "O=C(O)Cc1ccc(-c2ccccc2)cc1", "note": "[Felbinac]", "values": [{"measurement": "Ranking score", "setting": "[2]", "result": 476.874}, {"measurement": "B-score functional assay", "result": -1.207}]}
{"smiles": "CCOC(=O)C1=C(C)NC(C)=C(C(=O)OC)C1c1cccc(Cl)c1Cl", "note": "(centres unmarked) [Felodipine]", "values": [{"measurement": "Ranking score", "setting": "[2]", "result": 465.188}, {"measurement": "B-score functional assay", "result": 1.073}]}
{"smiles": "COC(=O)Nc1nc2ccc(Sc3ccccc3)cc2[nH]1", "note": "[Fenbendazole]", "values": [{"measurement": "Ranking score", "setting": "[2]", "result": 1220.76}, {"measurement": "B-score functional assay", "setting": "B-score", "result": 1.989}]}
{"smiles": "CC(C)OC(=O)C(C)(C)Oc1ccc(C(=O)c2ccc(Cl)cc2)cc1", "note": "[Fenofibrate]", "values": [{"measurement": "Ranking score", "setting": "[1]", "result": 212.979}, {"measurement": "B-score functional assay", "result": -0.159}]}
{"smiles": "Oc1ccc(C2CNCCc3c2cc(O)c(O)c3Cl)cc1", "note": "(centres unmarked) [Fenoldopam]", "values": [{"measurement": "Ranking score", "setting": "[1]", "result": 222.621}, {"measurement": "B-score functional assay", "result": 0.056}]}
{"smiles": "CC(C)(C(=O)O)c1ccc(C(O)CCCN2CCC(C(O)(c3ccccc3)c3ccccc3)CC2)cc1", "note": "(centres unmarked) [Fexofenadine HCl]", "values": [{"measurement": "Ranking score", "setting": "[1]", "result": 234.288}, {"measurement": "B-score functional assay", "result": -2.318}]}
{"smiles": "O=C(COc1ccc(Cl)cc1)N1CCN(Cc2ccc3c(c2)OCO3)CC1", "note": "[Fipexide hydrochloride]", "values": [{"measurement": "Ranking score", "setting": "[1]", "result": 172.884}, {"measurement": "B-score functional assay", "result": -2.118}]}
{"smiles": "CN1CCN(c2c(F)cc3c(=O)c(C(=O)O)cn(CCF)c3c2F)CC1", "note": "[Fleroxacin]", "values": [{"measurement": "Ranking score", "setting": "[2]", "result": 1148.84}, {"measurement": "B-score functional assay", "setting": "B-score", "result": 1.693}]}
{"smiles": "CS(=O)(=O)c1ccc([C@@H](O)[C@@H](CF)NC(=O)C(Cl)Cl)cc1", "note": "[Florfenicol]", "values": [{"measurement": "Ranking score", "setting": "[1]", "result": 235.125}, {"measurement": "B-score functional assay", "result": -0.913}]}
{"smiles": "OC(Cn1cncn1)(Cn1cncn1)c1ccc(F)cc1F", "note": "[Fluconazole]", "values": [{"measurement": "Ranking score", "setting": "[2]", "result": 553.146}, {"measurement": "B-score functional assay", "result": 1.083}]}
{"smiles": "C[C@@H]1C[C@H]2[C@@H]3C[C@H](F)C4=CC(=O)C=C[C@]4(C)[C@@]3(F)[C@@H](O)C[C@]2(C)[C@@]1(O)C(=O)COC(=O)C(C)(C)C", "note": "[Flumethasone pivalate]", "values": [{"measurement": "Ranking score", "setting": "[2]", "result": 535.546}, {"measurement": "B-score functional assay", "result": 0.019}]}
{"smiles": "Cc1c(Nc2ncccc2C(=O)O)cccc1C(F)(F)F", "note": "[Flunixin meglumine]", "values": [{"measurement": "Ranking score", "setting": "[1]", "result": 133.828}, {"measurement": "B-score functional assay", "result": -2.582}]}
{"smiles": "CC(=O)OCC(=O)[C@@]12OC(C)(C)O[C@@H]1C[C@H]1[C@@H]3C[C@H](F)C4=CC(=O)C=C[C@]4(C)[C@@]3(F)[C@@H](O)C[C@@]12C", "note": "[Fluocinonide]", "values": [{"measurement": "Ranking score", "setting": "[2]", "result": 619.745}, {"measurement": "B-score functional assay", "result": 0.319}]}
{"smiles": "CC(=O)[C@@]1(O)CC[C@H]2[C@@H]3C[C@H](C)C4=CC(=O)C=C[C@]4(C)[C@@]3(F)[C@@H](O)C[C@@]21C", "note": "[Fluorometholone]", "values": [{"measurement": "Ranking score", "setting": "[2]", "result": 616.409}, {"measurement": "B-score functional assay", "result": -0.26}]}
{"smiles": "CNCCC(Oc1ccc(C(F)(F)F)cc1)c1ccccc1", "note": "(centres unmarked) [Fluoxetine hydrochloride]", "values": [{"measurement": "Ranking score", "setting": "[1]", "result": 265.518}]}
{"smiles": "OCCN1CCN(CCCN2c3ccccc3Sc3ccc(C(F)(F)F)cc32)CC1", "note": "[Fluphenazine dihydrochloride]", "values": [{"measurement": "Ranking score", "setting": "[1]", "result": 99.0152}, {"measurement": "B-score functional assay", "result": -4.102}]}
{"smiles": "CC(C(=O)O)c1ccc(-c2ccccc2)c(F)c1", "note": "(centres unmarked) [Flurbiprofen]", "values": [{"measurement": "Ranking score", "setting": "[2]", "result": 612.059}, {"measurement": "B-score functional assay", "result": -0.613}]}
{"smiles": "O=C1NCN(c2ccccc2)C12CCN(CCCC(c1ccc(F)cc1)c1ccc(F)cc1)CC2", "note": "[Fluspirilen]", "values": [{"measurement": "Ranking score", "setting": "[2]", "result": 517.364}, {"measurement": "B-score functional assay", "result": 0.19}]}
{"smiles": "CC(C)n1c(/C=C/C(O)CC(O)CC(=O)O)c(-c2ccc(F)cc2)c2ccccc21", "note": "(centres unmarked) [Fluvastatin sodium salt]", "values": [{"measurement": "Ranking score", "setting": "[1]", "result": 89.7998}, {"measurement": "B-score functional assay", "result": -3.098}]}
{"smiles": "COCCCC/C(=N\\OCCN)c1ccc(C(F)(F)F)cc1", "note": "[Fluvoxamine maleate]", "values": [{"measurement": "Ranking score", "setting": "[2]", "result": 486.369}, {"measurement": "B-score functional assay", "result": 0.566}]}
{"smiles": "Cl.O=C1OC(CN2CCOCC2)CN1/N=C/c1ccc([N+](=O)[O-])o1", "note": "(centres unmarked) [Furaltadone hydrochloride]", "values": [{"measurement": "Ranking score", "setting": "[2]", "result": 592.766}, {"measurement": "B-score functional assay", "result": 0.718}]}
{"smiles": "NS(=O)(=O)c1cc(C(=O)O)c(NCc2ccco2)cc1Cl", "note": "[Furosemide]", "values": [{"measurement": "Ranking score", "setting": "[2]", "result": 1165.28}, {"measurement": "B-score functional assay", "setting": "B-score", "result": 1.457}]}
{"smiles": "CC(=O)O[C@H]1C[C@@]2(C)[C@@H](C[C@@H](O)[C@H]3[C@@]4(C)CC[C@@H](O)[C@@H](C)[C@@H]4CC[C@@]32C)/C1=C(\\CCC=C(C)C)C(=O)O", "note": "[Fusidic acid sodium salt]", "values": [{"measurement": "Ranking score", "setting": "[2]", "result": 523.068}, {"measurement": "B-score functional assay", "result": -0.548}]}
{"smiles": "COc1ccc(-c2ccc(=N)n(CCCC(=O)O)n2)cc1", "note": "[Gabazine bromide]", "values": [{"measurement": "Ranking score", "setting": "[1]", "result": 269.035}, {"measurement": "B-score functional assay", "result": -0.231}]}
{"smiles": "CCOC(=O)c1ccc(OC(=O)CCCCCN=C(N)N)cc1.CS(=O)(=O)O", "note": "[Gabexate mesilate]", "values": [{"measurement": "Ranking score", "setting": "[1]", "result": 203.005}, {"measurement": "B-score functional assay", "result": 0.072}]}
{"smiles": "CC[N+](CC)(CC)CCOc1cccc(OCC[N+](CC)(CC)CC)c1OCC[N+](CC)(CC)CC", "note": "[Gallamine triethiodide]", "values": [{"measurement": "Ranking score", "setting": "[2]", "result": 565.721}, {"measurement": "B-score functional assay", "result": 3.679}]}
{"smiles": "COc1c(N2CCNC(C)C2)c(F)cc2c(=O)c(C(=O)O)cn(C3CC3)c12", "note": "(centres unmarked) [Gatifloxacin]", "values": [{"measurement": "Ranking score", "setting": "[2]", "result": 627.155}, {"measurement": "B-score functional assay", "result": -0.592}]}
{"smiles": "COc1cc2ncnc(Nc3ccc(F)c(Cl)c3)c2cc1OCCCN1CCOCC1", "note": "[Gefitinib]", "values": [{"measurement": "Ranking score", "setting": "[2]", "result": 629.087}, {"measurement": "B-score functional assay", "result": 0.784}]}
{"smiles": "Cc1ccc(S(=O)(=O)NC(=O)NN2CC3CCCC3C2)cc1", "note": "(centres unmarked) [Gliclazide]", "values": [{"measurement": "Ranking score", "setting": "[1]", "result": 246.057}, {"measurement": "B-score functional assay", "result": -0.222}]}
{"smiles": "COC1=CC(=O)C[C@@H](C)[C@]12Oc1c(Cl)c(OC)cc(OC)c1C2=O", "note": "[Griseofulvin]", "values": [{"measurement": "Ranking score", "setting": "[2]", "result": 477.468}, {"measurement": "B-score functional assay", "result": -0.69}]}
{"smiles": "COc1ccccc1OCC(O)CO", "note": "(centres unmarked) [Guaifenesin]", "values": [{"measurement": "Ranking score", "setting": "[2]", "result": 466.326}, {"measurement": "B-score functional assay", "result": 0.275}]}
{"smiles": "N=C(N)N/N=C/c1c(Cl)cccc1Cl", "note": "[Guanabenz acetate]", "values": [{"measurement": "Ranking score", "setting": "[2]", "result": 467.541}, {"measurement": "B-score functional assay", "result": -1.531}]}
{"smiles": "N=C(N)NC(=O)Cc1c(Cl)cccc1Cl", "note": "[Guanfacine hydrochloride]", "values": [{"measurement": "Ranking score", "setting": "[2]", "result": 635.421}, {"measurement": "B-score functional assay", "result": 0.703}]}
{"smiles": "CC1(C)O[C@@H]2C[C@H]3[C@@H]4CCC5=CC(=O)CC[C@]5(C)[C@@]4(F)[C@@H](O)C[C@]3(C)[C@]2(C(=O)CCl)O1", "note": "[Halcinonide]", "values": [{"measurement": "Ranking score", "setting": "[2]", "result": 634.219}, {"measurement": "B-score functional assay", "result": 0.608}]}
{"smiles": "Clc1cc(Cl)c(OCC#CI)cc1Cl", "note": "[Haloprogin]", "values": [{"measurement": "Ranking score", "setting": "[2]", "result": 1271.5}, {"measurement": "B-score functional assay", "setting": "B-score", "result": 4.15}]}
{"smiles": "C[N+]1(C)CCOC(O)(c2ccc(-c3ccc(C4(O)C[N+](C)(C)CCO4)cc3)cc2)C1.[Br-].[Br-]", "note": "(centres unmarked) [Hemicholinium bromide]", "values": [{"measurement": "Ranking score", "setting": "[1]", "result": 262.621}, {"measurement": "B-score functional assay", "result": -3}]}
{"smiles": "CC(N)CCCC(C)(C)O", "note": "(centres unmarked) [Heptaminol hydrochloride]", "values": [{"measurement": "Ranking score", "setting": "[2]", "result": 1189.85}, {"measurement": "B-score functional assay", "setting": "B-score", "result": 2.111}]}
{"smiles": "COc1ccc([C@@H]2CC(=O)c3c(O)cc(O[C@@H]4O[C@H](CO[C@@H]5O[C@@H](C)[C@H](O)[C@@H](O)[C@H]5O)[C@@H](O)[C@H](O)[C@H]4O)cc3O2)cc1O", "note": "[Hesperidin]", "values": [{"measurement": "Ranking score", "setting": "[2]", "result": 580.078}, {"measurement": "B-score functional assay", "result": 0.91}]}
